Source: US20240358692A1, “TREATMENT OF SCLERODERMA” (Aisa Pharma, Inc., priority 2023, published 2024)

Test system: participants with SSc-RP
Assay: SHAQ - Visual Analog Scale - Overall Disease Severity
Type: in vivo, human
Settings: for % change overall SSc Disease Severity: SHAQ, mITT Part A
From the text: The standard, validated, patient reported outcome measures tool for SSc patients, the Scleroderma Health Assessment Questionnaire (SHAQ), will be used to assess the participant qualify of life. Details are attached in the Appendix. The participant quality of life will be scored, and a disability index calculated for each questionnaire completed by the patient at Screening and each in-clinic visit. The absolute change in participant quality of life from baseline to the end of each dosing period will be calculated similar to frequency data as before.
The standard, validated, patient reported outcome measures tool for SSc patients, the SHAQ, was collected at the time points specified in the study schedules (FIG. 2 and FIGS. 4A and 4B) to assess the participant's quality of life. The SHAQ included a Raynaud's VAS that will also be reported separately.

[1] = Any Cilnidipine (N = 17), Day 12, PP Population, Part A
[2] = Pooled Cilnidipine 10 mg and Cilnidipine 10 mg + Tadalafil 5 mg, PP, Part A
[3] = Pooled Cilnidipine 20 mg and Cilnidipine 20 mg + Tadalafil 5 mg, PP, Part A
[4] = Pooled Cilnidipine (N = 7), Day 12, Modified ITT Population - Part A
[5] = Pooled Cilnidipine (N = 8), Day 12, PP Population, Part A
[6] = Sensitivity Analysis (diagnosis of SSc), Modified ITT, Part A, Day 12, arms Cilnidipine 10 mg, Tadalafil 5 mg, Cilnidipine 10 mg + Tadalafil 5 mg
[7] = cilnidipine 10 mg (combination: + tadalafil 5 mg)
[8] = cilnidipine 20 mg (combination: + tadalafil 5 mg)

COCCOC(=O)C1=C(C)NC(C)=C(C(=O)OC/C=C/c2ccccc2)C1c1cccc([N+](=O)[O-])c1 (stereo not shown) [Cilnidipine]
SHAQ Visual Analogue Scale - Overall Disease Severity, Change from Baseline, Mean (SD) [1]: −0.991 (1.0921)
SHAQ Visual Analogue Scale - Overall Disease Severity, Change from Baseline, Median [1]: −1.100
SHAQ Visual Analogue Scale - Overall Disease Severity, In-Clinic Visit (Day 12), Mean (SD) [1]: 2.203 (2.1532)
SHAQ Visual Analogue Scale - Overall Disease Severity, In-Clinic Visit (Day 12), Median [1]: 1.400
SHAQ Visual Analogue Scale - Overall Disease Severity, Percent Change from Baseline, Mean (SD) [1]: −36.33 (43.497) %
SHAQ Visual Analogue Scale - Overall Disease Severity, Percent Change from Baseline, Median [1]: −42.89%
% change overall SSc Disease Severity (Cilnidipine 20 mg (n = 3)): −63% (i.e.,
SHAQ Overall Scleroderma Disease Severity, mean % change (Cilnidipine 20 mg (n = 3), minus = improvement, Table A*): −63%
SHAQ VAS Overall Disease Severity, Change from Baseline, Max [2]: 1.90
SHAQ VAS Overall Disease Severity, Change from Baseline, Mean (SD) [2]: −0.606 (1.1663)
SHAQ VAS Overall Disease Severity, Change from Baseline, Min [2]: −1.90
SHAQ VAS Overall Disease Severity, Change from Baseline, Q1 [2]: −1.500
SHAQ VAS Overall Disease Severity, Change from Baseline, Q3 [2]: −0.300
SHAQ VAS Overall Disease Severity, Day 12, Max [2]: 6.00
SHAQ VAS Overall Disease Severity, Day 12, Min [2]: 0.00
SHAQ VAS Overall Disease Severity, Day 12, Q1 [2]: 0.800
SHAQ VAS Overall Disease Severity, Day 12, Q3 [2]: 3.800
SHAQ VAS Overall Disease Severity, Percent Change from Baseline, Max [2]: 100.0
SHAQ VAS Overall Disease Severity, Percent Change from Baseline, Mean (SD) [2]: −24.68 (57.343)
SHAQ VAS Overall Disease Severity, Percent Change from Baseline, Min [2]: −100.0
SHAQ VAS Overall Disease Severity, Percent Change from Baseline, Q1 [2]: −51.01
SHAQ VAS Overall Disease Severity, Percent Change from Baseline, Q3 [2]: −16.76
SHAQ Visual Analogue Scale - Overall Disease Severity, Change from Baseline, Median (Pooled Cilnidipine 20 mg and Cilnidipine 20 mg + Tadalafil 5 mg (N = 7), Day 12, Modified ITT Population - Part A): −1.500
SHAQ Visual Analogue Scale - Overall Disease Severity, In-Clinic Visit (Day 12), Median (Pooled Cilnidipine 20 mg and Cilnidipine 20 mg + Tadalafil 5 mg (N = 7), Modified ITT Population - Part A): 1.200
SHAQ VAS Overall Disease Severity, Change from Baseline, Max [3]: −0.40
SHAQ VAS Overall Disease Severity, Change from Baseline, Min [3]: −3.10
SHAQ VAS Overall Disease Severity, Change from Baseline, Q1 [3]: −1.750
SHAQ VAS Overall Disease Severity, Change from Baseline, Q3 [3]: −0.650
SHAQ VAS Overall Disease Severity, Day 12, Max [3]: 7.30
SHAQ VAS Overall Disease Severity, Day 12, Median [3]: 1.300
SHAQ VAS Overall Disease Severity, Day 12, Min [3]: 0.50
SHAQ VAS Overall Disease Severity, Day 12, Q1 [3]: 0.800
SHAQ VAS Overall Disease Severity, Day 12, Q3 [3]: 1.750
SHAQ VAS Overall Disease Severity, Percent Change from Baseline, Max [3]: −9.9
SHAQ VAS Overall Disease Severity, Percent Change from Baseline, Min [3]: −76.2
SHAQ VAS Overall Disease Severity, Percent Change from Baseline, Q1 [3]: −64.44
SHAQ VAS Overall Disease Severity, Percent Change from Baseline, Q3 [3]: −36.22
SHAQ Visual Analogue Scale - Overall Disease Severity, Change from Baseline, Mean [4]: −1.214
SHAQ Visual Analogue Scale - Overall Disease Severity, Percent Change from Baseline, Mean [4]: −59.80%
SHAQ Visual Analogue Scale - Overall Disease Severity, Percent Change from Baseline, Median [4]: −55.86%
SHAQ Visual Analogue Scale - Overall Disease Severity, In-Clinic Visit (Day 12), Mean (Pooled Cilnidipine (N = 7), Modified ITT Population - Part A): 1.486
SHAQ Visual Analogue Scale - Overall Disease Severity, In-Clinic Visit (Day 12), Mean (SD) [5]: 1.475 (1.6430)
SHAQ Visual Analogue Scale - Overall Disease Severity, In-Clinic Visit (Day 12), Median [5]: 1.300
% change overall SSc Disease Severity (Pooled Cilnidipine (n = 7)): −60% (i.e.,
SHAQ VAS Overall Disease Severity, Change from Baseline, Max (Pooled Cilnidipine, PP, Part A): 0.20
SHAQ VAS Overall Disease Severity, Change from Baseline, Mean (SD) (Pooled Cilnidipine, PP, Part A): −1.450 (0.9928)
SHAQ VAS Overall Disease Severity, Change from Baseline, Median (Pooled Cilnidipine, PP, Part A): −1.550
SHAQ VAS Overall Disease Severity, Change from Baseline, Min (Pooled Cilnidipine, PP, Part A): −3.10
SHAQ VAS Overall Disease Severity, Change from Baseline, Q1 (Pooled Cilnidipine, PP, Part A): −1.850
SHAQ VAS Overall Disease Severity, Change from Baseline, Q3 (Pooled Cilnidipine, PP, Part A): −0.950
SHAQ VAS Overall Disease Severity, Day 12, Max (Pooled Cilnidipine, PP, Part A): 5.20
SHAQ VAS Overall Disease Severity, Day 12, Median (Pooled Cilnidipine, PP, Part A): 1.300
SHAQ VAS Overall Disease Severity, Day 12, Min (Pooled Cilnidipine, PP, Part A): 0.00
SHAQ VAS Overall Disease Severity, Day 12, Q1 (Pooled Cilnidipine, PP, Part A): 0.350
SHAQ VAS Overall Disease Severity, Day 12, Q3 (Pooled Cilnidipine, PP, Part A): 1.650
SHAQ VAS Overall Disease Severity, Percent Change from Baseline, Max (Pooled Cilnidipine, PP, Part A): −26.8
SHAQ VAS Overall Disease Severity, Percent Change from Baseline, Mean (SD) (Pooled Cilnidipine, PP, Part A): −61.10 (23.658)
SHAQ VAS Overall Disease Severity, Percent Change from Baseline, Median (Pooled Cilnidipine, PP, Part A): −60.00
SHAQ VAS Overall Disease Severity, Percent Change from Baseline, Min (Pooled Cilnidipine, PP, Part A): −100.0
SHAQ VAS Overall Disease Severity, Percent Change from Baseline, Q1 (Pooled Cilnidipine, PP, Part A): −76.19
SHAQ Visual Analogue Scale - Overall Disease Severity: Change from Baseline, Median [6]: −1.500
SHAQ Visual Analogue Scale - Overall Disease Severity: In-Clinic Visit (Day 12), Median [6]: 1.900
SHAQ Visual Analogue Scale - Overall Disease Severity: In-Clinic Visit (Day 12), Median (Sensitivity Analysis (diagnosis of SSc), Modified ITT, Part A, Day 12, arms Cilnidipine 20 mg, Cilnidipine 20 mg + Tadalafil 5 mg): 1.200
VAS Overall Severity Change from Baseline Max [7]: 0.20
VAS Overall Severity Change from Baseline Mean [7]: −0.900
VAS Overall Severity Change from Baseline Median [7]: −0.950
VAS Overall Severity Change from Baseline Min [7]: −1.90
VAS Overall Severity Change from Baseline Q1 [7]: −1.700
VAS Overall Severity Change from Baseline Q3 [7]: −0.100
VAS Overall Severity Day 12 Max [7]: 5.20
VAS Overall Severity Day 12 Min [7]: 0.00
VAS Overall Severity Day 12 Q1 [7]: 0.100
VAS Overall Severity Day 12 Q3 [7]: 3.550
VAS Overall Severity Percent Change from Baseline Max [7]: −26.8%
VAS Overall Severity Percent Change from Baseline Mean [7]: −56.96%
VAS Overall Severity Percent Change from Baseline Median [7]: −44.12%
VAS Overall Severity Percent Change from Baseline Min [7]: −100.0%
VAS Overall Severity Percent Change from Baseline Q1 [7]: −100.00%
VAS Overall Severity Percent Change from Baseline Q3 [7]: −26.76%
VAS Overall Severity Change from Baseline Max [8]: −1.50
VAS Overall Severity Change from Baseline Mean [8]: −1.633,
VAS Overall Severity Change from Baseline Median [8]: −1.600
VAS Overall Severity Change from Baseline Min [8]: −1.80
VAS Overall Severity Change from Baseline Q1 [8]: −1.800
VAS Overall Severity Change from Baseline Q3 [8]: −1.500
VAS Overall Severity Day 12 Max [8]: 1.40
VAS Overall Severity Day 12 Median [8]: 1.200
VAS Overall Severity Day 12 Min [8]: 0.50
VAS Overall Severity Day 12 Q1 [8]: 0.500
VAS Overall Severity Day 12 Q3 [8]: 1.400
VAS Overall Severity Percent Change from Baseline Max [8]: −51.7%
VAS Overall Severity Percent Change from Baseline Mean [8]: −62.64%
VAS Overall Severity Percent Change from Baseline Median [8]: −60.00%
VAS Overall Severity Percent Change from Baseline Min [8]: −76.2%
